Test: gradient 5% acetonitrile 3 min, to 50% in 2 min, to 85% in 15 min, held 3 min, 100 µL/min
Details: column: Zorbax Extend-C18 2.1 x 50 mm; eluents: water / acetonitrile, 0.1% formic acid
Outline: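 Retention time was recorded from adduct peaks, which were picked computationally and each inspected manually. Pure standards ran in mixtures of ~100 molecules on HPLC coupled to a quadrupole time-of-flight mass spectrometer, in positive and negative ionization mode, through a Zorbax Extend-C18 column (2.1 × 50 mm, 1.8 μm) at 100 μL/min. Eluents were water and acetonitrile, each with 0.1% formic acid.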

RP-LC retention time [s]	SMILES
693	O=C([C@@H]1C[C@H](F)CN1C(=O)c1cccc(F)c1)N1CCCCC1
894	COc1ccc(NC(=O)c2nnc(COCC(=O)NCCc3c[nH]c4ccc(Cl)cc34)s2)cc1
657	Cc1cc(=O)n(CC(=O)NCc2ccc(F)cc2F)c(N2CCCCC2)n1
731	CCOC(=O)N1CCC(Nc2c(C(=O)OC)c(=O)[nH]c3c(Cl)cccc23)CC1
633	CCN1CCN(c2nccc(-c3cnc4nc(-c5ccccc5)nn4c3C)n2)CC1
1250	O=C(NC1(c2nc(-c3ccccc3)no2)CCCCC1)c1ccc(C(F)(F)F)cc1
997	CNC(=O)c1cnc(-c2ccc(Cl)cc2)n(CC(=O)N2CCc3ccccc32)c1=O
613	Cc1cc(N2CCN(C(=O)c3c(F)cccc3F)CC2)nc(N2CCOCC2)n1
810	COc1ccc(OC)c(Nc2nc(NCC3CCCO3)nc(N)c2[N+](=O)[O-])c1 (stereo not given)
795	Cn1cc(-c2cc3n(n2)CCC(=O)N3CCCC(=O)NCc2ccc3c(c2)OCO3)c2ccccc21
704	O=C(CN1C(=O)CC(c2ccccc2)S(=O)(=O)c2ccccc21)N1CCOCC1 (stereo not given)
752	O=C(c1cnccn1)N1CCC(N2C(=O)C(OCC3CC3)C23CCCCC3)CC1 (stereo not given)
635	CC(=O)c1ccc(NC(=O)Cn2c(=O)nc(NC3CCCC3)c3ccccc32)cc1
710	CC1=C(C(=O)N2CCOCC2)C(c2ccc(Cl)cc2)C2=C(CC(C)(C)CC2=O)N1 (stereo not given)
795	CCc1cccc(NC(=O)N(C)CC2CCOCC2)c1
537	O[C@@H]1C[C@@H](c2nnc3n2CCN(Cc2ccccn2)C3)N(Cc2ccccc2)C1

RP-LC retention time [s]	SMILES
1130	COc1cc(-c2noc(Cn3ncn4nc(-c5ccc(C)cc5C)cc4c3=O)n2)cc(OC)c1OC
1190	Cc1ccccc1NC(=O)C1CCCN(c2nc3ccccc3nc2C(F)(F)F)C1 (stereo not given)
835	CCN1c2ccc(F)cc2C(=O)NC12CCN(C(=O)c1ccccc1C)CC2
728	Cc1nc(C)c(C(=O)N2CCCCCCN(C)C(=O)[C@@H]3CCC[C@@H]32)s1
976	COc1cccc(N2C(=O)C3N=NN(Cc4nc(-c5ccccc5C)no4)C3C2=O)c1 (stereo not given)
815	O=C(NCC(O)(c1ccccc1)C(F)(F)F)c1cccs1 (stereo not given)
916	COc1ccc(OC)c(S(=O)(=O)N2CCCC(C)(C(=O)NCc3ccc(F)cc3)C2)c1 (stereo not given)
692	CCC(CO)NCc1ccc(-c2ccc(Cl)cc2Cl)o1 (stereo not given)
622	Cn1c(C(=O)NCc2cc(F)ccc2F)cc2ccncc21
640	CCOc1ccc(NC(=O)N2CCCC(Cn3cnc4cccnc43)C2)cc1 (stereo not given)
717	COc1cccc(S(=O)(=O)N2CCCC(c3nn[nH]n3)C2)c1 (stereo not given)
1050	O=C(Cn1cnc2c(sc3nc(-c4ccccc4)ccc32)c1=O)Nc1ccc(F)cc1Cl
605	CCn1nccc1C(=O)NCC1Cn2cccc2C(=O)N1C (stereo not given)
829	COc1ccc(-n2ccnc(NC(=O)Nc3ccccc3)c2=O)cc1OC
1000	O=C(Nc1ccc2c(c1)OCO2)N1CCC2(CC1)Nc1cc(F)ccc1-n1cccc12
670	CCCC(NC(=O)c1ccc2c(c1)OCO2)C(=O)Nc1nc2ccccc2[nH]1 (stereo not given)

SMILES	RP-LC retention time [s]
Cc1nn(C)c(C)c1S(=O)(=O)N1[C@H]2CC[C@@H]1c1cnc(-c3ccccc3)nc1C2	865
COc1ccc(-c2nnc(N3CCC(C(=O)N4CCC5(CC4)OCCO5)CC3)o2)cc1	704
CCOc1ccc(NC(=O)N2CCC3(C2)C(=O)Nc2ccc(OC)cc23)cc1 (stereo not given)	731

— the METLIN SMRT retention time set (Domingo-Almenara et al. 2019)
